Reference: US20250051277A1, “DELIVERY OF THERAPEUTIC ALKALOID COMPOUNDS” (Sensorium Therapeutics, Inc., priority 2021, published 2025)
Like-named read-outs stand apart in the source and are kept apart here. Marks after values point to notes of the source that are not given here.

Tests used:
[1] = format: physicochemical; conditions: SGF with pepsin, pH 1.5, 37° C.; for Condition 1 Conversion (%): 0.5 mM; for Condition 1 Conversion (%), first value of pair x/y: first of two values; for Condition 1 Conversion (%), second value of pair x/y: second of two values
[2] = format: physicochemical; conditions: DI water, 25° C., 0.5 mM

Row | Compound | Condition 1 Conversion (%) ([1]; time 1 min) | Condition 1 Conversion (%) ([1]; time 5 min) | Condition 1 Conversion (%) ([1]; time 30 min) | Condition 1 Conversion (%) ([1]; time 1 h) | Condition 1 Conversion (%) ([1]; time 4 h) | Condition 1 Conversion (%) ([1]; time 24 h) | Condition 2 Conversion (%) ([2]; time 1 min) | Condition 2 Conversion (%) ([2]; time 5 min) | Condition 2 Conversion (%) ([2]; time 30 min) | Condition 2 Conversion (%) ([2]; time 1 h) | Condition 2 Conversion (%) ([2]; time 4 h) | Condition 2 Conversion (%) ([2]; time 24 h) | Condition 1 Conversion (%), first value of pair x/y ([1]; time 1 h) [%] | Condition 1 Conversion (%), second value of pair x/y ([1]; time 1 h) [%] | Condition 1 Conversion (%), first value of pair x/y ([1]; time 4 h) [%] | Condition 1 Conversion (%), second value of pair x/y ([1]; time 4 h) [%] | Condition 1 Conversion (%), first value of pair x/y ([1]; time 24 h) [%] | Condition 1 Conversion (%), second value of pair x/y ([1]; time 24 h) [%]
1 | COc1ccc([C@]23CCN(C)[C@H]2CC(OC)(OC)CC3)cc1OC (stereo in doubt) [Compound 190, 3a-(3,4-dimethoxyphenyl)-6,6-dimethoxy-1-methyl-2,3,4,5,7,7a-hexahydroindole] | 0 | 8.30 | 82.97 | 100 | 100 | 100 | 0% | 0% | 0 | 0 | 0 | 0 |  |  |  |  |  | 
2 | COc1ccc(C23CCC(=NNC(=O)Nc4ccccc4)C[C@@H]2N(C)CC3)cc1OC (stereo in doubt) [Compound 198, 1-[[(3aR)-3a-(3,4-dimethoxyphenyl)-1-methyl-2,3,4,5,7,7a-hexahydroindol-6-ylidene]amino]-3-phenyl-urea] | 0.86 | 1 | 1 | 1 | 1 | 1 | 0.2% | 0.21% | 0.22 | 0.55 | 0.89 | 0.8 |  |  |  |  |  | 
3 | COc1ccc([C@]23CCN(C)[C@H]2CC2(CC3)OCC(c3ccc([N+](=O)[O-])cc3)O2)cc1OC (stereo partly drawn) [Compound 114, (3a'S,7a'S)-3a′-(3,4-dimethoxyphenyl)-1′-methyl-4-(4-nitrophenyl)octahydrospiro[[1,3]dioxolane-2,6′-indole]] | 0 | 0 | 0 | 0 | 0 | 0 |  |  |  |  |  |  |  |  |  |  |  | 
4 | COc1ccc([C@@]23CCC(=NNC(=O)c4ccncc4)C[C@@H]2N(C)CC3)cc1OC [Compound 157, N-[[(3aS,7aS)-3a-(3,4-dimethoxyphenyl)-1-methyl-2,3,4,5,7,7a-hexahydroindol-6-ylidene]amino]pyridine-4-carboxamide] | 100 | 100 | 100 | 100 | 100 | 100 |  |  |  |  |  |  |  |  |  |  |  | 
5 | COc1ccc([C@@]23CCC(=NNC(=O)CC[C@H](NC(=O)c4ccc(NCc5cnc6nc(N)nc(O)c6n5)cc4)C(=O)O)C[C@@H]2N(C)CC3)cc1OC [Compound 172, (2S)-5-[2-[(3aS,7aS)-3a-(3,4-dimethoxyphenyl)-1-methyl-2,3,4,5,7,7a-hexahydroindol-6-ylidene]hydrazino]-2-[[4-[(2-amino-4-hydroxy-pteridin-6-yl)methylamino]benzoyl]amino]-5-oxo-pentanoic acid] | 100 | 100 | 100 | 100 | 100 | 100 | 50* % | 70* % | 100 | 100 | 100 | 100 |  |  |  |  |  | 
6 | COc1ccc([C@]23CCN(C)[C@H]2CC2(CC3)OC[C@H]([C@@H](O)[C@@H](O)Cn3c4nc(=O)[nH]c(=O)c-4nc4cc(C)c(C)cc43)O2)cc1OC (stereo partly drawn) [Compound 174, 10-[(2S,3S)-3-[(3′aS,4R)-3′a-(3,4-dimethoxyphenyl)-1′-methyl-spiro[1,3-dioxolane-2,6′-2,3,4,5,7,7a-hexahydroindole]-4-yl]-2,3-dihydroxy-propyl]-7,8-dimethyl-benzo[g]pteridine-2,4-dione] | 0 | 0 | 0 | 0 | 0 | 0 |  |  |  |  |  |  |  |  |  |  |  | 
7 | COc1ccc([C@]23CCN(C)[C@H]2CC2(CC3)O[C@@H]([C@@H](O)Cn3c4nc(=O)[nH]c(=O)c-4nc4cc(C)c(C)cc43)[C@@H](CO)O2)cc1OC (stereo partly drawn) [Compound 196, 10-[(2S)-2-[(3′aS,4S,5R)-3′a-(3,4-dimethoxyphenyl)-5-(hydroxymethyl)-1′-methyl-spiro[1,3-dioxolane-2,6′-2,3,4,5,7,7a-hexahydroindole]-4-yl]-2-hydroxy-ethyl]-7,8-dimethyl-benzo[g]pteridine-2,4-dione] | 0 | 0 | 0 | 0 | 0 | 0 |  |  |  |  |  |  |  |  |  |  |  | 
8 | COc1ccc([C@@]23CCC(=NOC(C)(C)C)C[C@@H]2N(C)CC3)cc1OC [Compound 199, (3aS)-N-tert-butoxy-3a-(3,4-dimethoxyphenyl)-1-methyl-2,3,4,5,7,7a-hexahydroindol-6-imine] | 0 | 0 | 0 | 4.2 | 23.6 | 27.3 | 0% | 0% | 0 | 0 | 0 | 0 |  |  |  |  |  | 
9 | CCON=C1CC[C@@]2(c3ccc(OC)c(OC)c3)CCN(C)[C@H]2C1 [Compound 200, (3aS,7aS)-3a-(3,4-dimethoxyphenyl)-N-ethoxy-1-methyl-2,3,4,5,7,7a-hexahydroindol-6-imine] | 0 | 0 | 0 | 2.1 | 27.7 | 34.1 | 0% | 0% | 0 | 0 | 0 | 0 |  |  |  |  |  | 
10 | COc1ccc([C@@]23CCC(=NOCC(=O)O)C[C@@H]2N(C)CC3)cc1OC [Compound 201, 2-[[(3aS,7aS)-3a-(3,4-dimethoxyphenyl)-1-methyl-2,3,4,5,7,7a-hexahydroindol-6-ylidene]amino]oxyacetic acid] | 0 | 0 | 0 | 0 | 7.1 | 14.7 | 0% | 0% | 0 | 0 | 0 | 0 |  |  |  |  |  | 
11 | COc1ccc([C@@]23CCC(=NOCC(=O)OC(C)(C)C)C[C@@H]2N(C)CC3)cc1OC [Compound 202, tert-butyl 2-[[(3aS,7aS)-3a-(3,4-dimethoxyphenyl)-1-methyl-2,3,4,5,7,7a-hexahydroindol-6-ylidene]amino]oxyacetate] | 0 | 0 | 0 |  |  |  | 0% | 0% | 0 | 0 | 0 | 0 | 1.12 | 0 | 3.01 | 6.42 | 64.4 | 6.42
12 | COc1ccc([C@@]23CCC(=NOCCO)C[C@@H]2N(C)CC3)cc1OC [Compound 203, 2-[[(3aS,7aS)-3a-(3,4-dimethoxyphenyl)-1-methyl-2,3,4,5,7,7a-hexahydroindol-6-ylidene]amino]oxyethanol] | 0 | 0 | 0 | 0 | 18.58 | 26.48 | 0% | 0% | 0 | 0 | 0 | 0 |  |  |  |  |  | 
13 | CCCC1CO[C@]2(CC[C@@]3(c4ccc(OC)c(OC)c4)CCN(C)C3C2)O1 (stereo partly drawn) [Compound 212, (2R,3′aS)-3′a-(3,4-dimethoxyphenyl)-1′-methyl-4-propyl-spiro[1,3-dioxolane-2,6′-2,3,4,5,7,7a-hexahydroindole]] | 0 | 0 | 0 | 0 | 0 | 0 |  |  |  |  |  |  |  |  |  |  |  | 
14 | CCCC1CO[C@@]2(CC[C@@]3(c4ccc(OC)c(OC)c4)CCN(C)C3C2)O1 (stereo partly drawn) [Compound 238, (2S,3′aS)-3′a-(3,4-dimethoxyphenyl)-1′-methyl-4-propyl-spiro[1,3-dioxolane-2,6′-2,3,4,5,7,7a-hexahydroindole]] | 0 | 0 | 0 | 0 | 0 | 0 |  |  |  |  |  |  |  |  |  |  |  | 
